Measurements: patent US11571418B2, “Platinum compounds that inhibit constitutive STAT3 signaling and induce cell cycle arrest and apoptosis of malignant cells” (H. LEE MOFFITT CANCER CENTER AND RESEARCH INSTITUTE, INC., priority 2011, dated 2023)

Tests used:
Stat5 = assay: In vitro Stat5 DNA-binding activity assay, EMSA with MGFe probe; parameters: species or system mouse; settings: pre-incubated 30 min before MGFe probe
Protocol: FIGS. 1A-1E. Inhibition of in vitro Stat3 DNA-binding activity by a platinum complex. Nuclear extracts or cell lysates containing activated Stat1, Stat3 and Stat5, or E2F1 prepared from NIH3T3/hEGFR that are stimulated with EGF or Sf-9 insect cells that are infected with baculovirus expressing Stat1, Stat3, Stat5, or E2F1, respectively, were treated with or without the indicated concentrations of platinum complex, PLATINUM-401 or Cisplatin, for 30 min at room temperature prior to incubation with radiolabeled oligonucleotide probes, and subjected to EMSA analysis. (FIG. 1A) (i) Stat1 and Stat3 binding activities to hSIE probe, (ii) Stat1 and Stat5 binding activities to MGFe probe, and (iii) plot of % oligonucleotide probe-STAT:STAT complexes versus concentration of PLATINUM-401. […] Positions of STAT: STAT-DNA complexes in gel are labeled. In (A) to (C), the control lanes represent DMSO (vehicle)-treatment.
(§1) Nuclear extract preparation and gel shift assays—Nuclear extract preparation from NIH3T3 stimulated by rhIL-6, NIH3T3/hEGFR stimulated by rhEGF, v-Src-transformed fibroblasts (NIH3T3/v-Src) or tumor cell lines and electrophoretic mobility shift assay were carried out as previously described (Turkson et al., 1998; Garcia et al., 1997; Yu et al., 1995). […]

[1] = test system: Stat3 tyrosine phosphorylation; assay: Stat3 tyrosine phosphorylation, Western blot; type: cell-based; settings: mouse fibroblasts, time- and dose-dependent
Protocol: FIGS. 3A-3D. Inhibition of Stat3-mediated gene expression by PLATINUM-401. (FIG. 3A) and (FIG. 3B) v-Src-transformed mouse fibroblasts that stably express Stat3-dependent (NIH3T3/v-Src/pLucTKS3) and Stat3-independent (NIH3T3/v-Src/pRLSRE) luciferase reporters or β-galactosidase (β-gal), as well as normal mouse fibroblast (NIH3T3) transiently transfected with pLucTKS3, pGL2-VEGF-Luc, NFkB-Luc or pLucSRE together with or without v-Src were treated with or without PLATINUM-401 for 48 h. Cytosolic extracts were then prepared from cells for luciferase and […] activities measurements. Values are the means and S.D. of three to five independent assays; (FIG. 3C) and (FIG. 3D) Nuclear extracts or whole cell lysates were prepared from IL-6-stimulated normal mouse fibroblasts (NIH3T3) or their v-Src-transformed counterpart (NIH3T3/v-Src) that are treated with or without PLATINUM-401 for different times. Samples of equal total proteins were then subjected to in vitro DNA-binding activity and EMSA analysis or for SDS-PAGE and Western blot analysis for phosphorylated and total Stat3.
Western blot—Whole-cell lysates were prepared in boiling sodium dodecyl sulfate (SDS) sample-loading buffer to extract total proteins from the cytoplasm and nucleus. […]
To further investigate the activities of PLATINUM-401, the inventors treated malignant cells and measured effects on Stat3 signaling. […]

inactive Stat3 monomer = molecular target: T1, inactive Stat3 monomer (Homo sapiens, UniProt P40763); assay: Inactive STAT monomer added to activated Stat3 before EMSA (titration of compound); type: binding; settings: monomer added to activated Stat3, pre-incubated with compound 30 min
T1 construct: made in house; host or cells: Sf-9 insect cells infected with recombinant baculovirus
From the text: The interaction of PLATINUM-401 with Stat3 protein is independent of the activation status of the protein.

[2] = test system: malignant cells harboring constitutively-active Stat3; assay: Constitutive Stat3 activation in treated malignant cells (EMSA of nuclear extracts); type: cell-based; settings: 24 h treatment
Protocol: FIGS. 5A and 5B. Evaluation for effects of PLATINUM-401 on cellular constitutive Stat3 activation and cell proliferation. Normal or malignant cells were treated with or without PLATINUM-401 and nuclear extracts were prepared for Stat3 DNA-binding activity assay with hSIE probe, or cells were processed for nuclear Ki67 immunohistochemistry. (FIG. 5A) EMSA analysis of Stat3 DNA-binding activity; (FIG. 5B) Graphical representations of quantified nuclear staining of Ki-67 proliferation index. Stat3:Stat3-DNA complexes in gels are labeled. The Ki-67 proliferation indexes were calculated as the percent positive tumor cells relative to the total number of cells. Ki67 values are representative of 3 independent assays.
as §1
The inventors further examined the biological effects of PLATINUM-401 and determined whether any changes might correlate with the inhibition of constitutively-active Stat3. […]

T1 sequence (P40763 whole entry): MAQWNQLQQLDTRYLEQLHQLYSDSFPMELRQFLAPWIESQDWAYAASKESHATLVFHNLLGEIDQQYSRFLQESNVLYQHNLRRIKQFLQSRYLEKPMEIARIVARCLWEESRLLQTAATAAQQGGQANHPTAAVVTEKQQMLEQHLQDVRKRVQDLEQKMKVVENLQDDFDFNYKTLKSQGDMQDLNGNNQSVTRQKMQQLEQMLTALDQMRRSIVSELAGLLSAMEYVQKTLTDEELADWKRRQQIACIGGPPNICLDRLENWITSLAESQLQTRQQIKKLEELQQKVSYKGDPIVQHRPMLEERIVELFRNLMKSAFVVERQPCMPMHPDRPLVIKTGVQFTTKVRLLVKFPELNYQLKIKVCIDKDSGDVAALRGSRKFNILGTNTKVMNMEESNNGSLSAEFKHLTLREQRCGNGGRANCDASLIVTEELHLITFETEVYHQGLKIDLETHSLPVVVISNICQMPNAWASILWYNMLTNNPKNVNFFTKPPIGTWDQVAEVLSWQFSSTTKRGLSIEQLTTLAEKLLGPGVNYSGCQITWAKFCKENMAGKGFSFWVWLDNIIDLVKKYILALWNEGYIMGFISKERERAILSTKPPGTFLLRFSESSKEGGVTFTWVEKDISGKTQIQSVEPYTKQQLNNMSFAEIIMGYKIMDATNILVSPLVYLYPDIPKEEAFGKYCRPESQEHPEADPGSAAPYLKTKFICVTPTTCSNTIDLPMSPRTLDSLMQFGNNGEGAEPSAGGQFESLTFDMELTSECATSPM

In the case of `CC(O)CN1CCN(CC(C)O)CC1` (stereo not shown) [PLATINUM-401], the “effect on DNA-binding activity of Stat5:Stat5 dimer” value (Stat5) was “does not significantly affect”, the Stat3 tyrosine phosphorylation [1] was “inhibits” and the “interaction with inactive Stat3 monomer” value (inactive Stat3 monomer) was “interacts”. The “constitutive activation of Stat3” value [2] was “significant inhibition”.
